Source: paper PMC5996347, “2-Mercapto-Quinazolinones as Inhibitors of Type II NADH Dehydrogenase and Mycobacterium tuberculosis: Structure–Activity Relationships, Mechanism of Action and Absorption, Distribution, Metabolism, and Excretion Characterization” (ACS Infectious Diseases, 2018)
Entries after “also recorded” stand apart in the source; their conditions may differ.

Tests used:
Format in all cases: cell-based, Mycobacterium tuberculosis
[1] = tested on: anaerobic nonreplicating MTb cells; assay: Anaerobic cidal activity on nonreplicating cells
nuoG deletion mutant = settings: results not shown
ΔndhA mutant = tested on: ΔndhA mutant

O=C(CSc1nc2ccccc2c(=O)[nH]1)NC1CCCCC1 [Compound 1, N-Cyclohexyl-2-((4-oxo-3,4-dihydroquinazolin-2-yl)thio)acetamide]
Anaerobic cidal activity / viability of anaerobic nonreplicating cells [1]: Lack of anaerobic cidal activity; also recorded: did not affect viability
MIC to nuoG deletion mutant compared with WT (nuoG deletion mutant): indistinguishable from WT cells
Kill of ΔndhA mutant (ΔndhA mutant): ~2 log
